Experimental data: BindingDB's records for doi:10.7270/Q2SF2TM0 (The Scripps Research Institute Molecular Screening Center, 2009)

The compounds below were run against Beta-lactamase (Pseudomonas aeruginosa, UniProt Q79MP6) (assay: IMP-1 metallo-beta-lactamase inhibitors, dose response, selectivity assay for VIM-2 inhibitor project, biochemical, epi-absorbance (AID 1920)).
Beta-lactamase, sequence (Q79MP6 whole entry): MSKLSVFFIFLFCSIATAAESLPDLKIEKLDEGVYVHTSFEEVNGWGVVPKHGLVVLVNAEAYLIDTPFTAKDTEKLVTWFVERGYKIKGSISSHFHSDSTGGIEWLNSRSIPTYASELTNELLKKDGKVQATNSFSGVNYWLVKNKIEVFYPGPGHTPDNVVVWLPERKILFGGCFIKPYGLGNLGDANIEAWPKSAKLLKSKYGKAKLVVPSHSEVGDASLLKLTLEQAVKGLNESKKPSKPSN

Row | SMILES | IC50 [µM]
1 | O=C1C(=O)N(Cc2cccnc2)C(c2ccccn2)C1C(=O)c1cccs1 (configuration not stated) [3-hydroxy-5-(2-pyridinyl)-1-(3-pyridinylmethyl)-4-(2-thienylcarbonyl)-1,5-dihydro-2H-pyrrol-2-one] | > 59.6
2 | COc1ccc(OC)c(C=NNC(=O)Cc2c(C)[nH][nH]c2=O)c1 [SMR000147372] | > 59.6
3 | COc1ccc(C(=O)C2C(=O)C(=O)N(Cc3ccco3)C2c2cc(OC)ccc2OC)cc1 (configuration not stated) [(4E)-5-(2,5-dimethoxyphenyl)-1-(2-furanylmethyl)-4-[hydroxy-(4-methoxyphenyl)methylidene]pyrrolidine-2,3-dione] | > 59.6
4 | O=C1C(=O)N(Cc2cccnc2)C(c2ccccn2)C1C(=O)c1ccc(F)cc1 (configuration not stated) [(4Z)-4-[(4-fluorophenyl)-hydroxy-methylene]-5-(2-pyridyl)-1-(3-pyridylmethyl)pyrrolidine-2,3-quinone] | > 59.6
5 | COc1ccc(OC)c(C2C(C(=O)c3ccco3)C(=O)C(=O)N2Cc2cccnc2)c1 (configuration not stated) [2-(2,5-dimethoxyphenyl)-3-(furan-2-carbonyl)-4-hydroxy-1-(pyridin-3-ylmethyl)-2H-pyrrol-5-one] | > 59.6
6 | O=C1C(=O)N(Cc2cccnc2)C(c2ccccn2)C1C(=O)c1ccccc1 (configuration not stated) [(4Z)-4-[hydroxy(phenyl)methylene]-5-(2-pyridyl)-1-(3-pyridylmethyl)pyrrolidine-2,3-quinone] | > 59.6
7 | COc1cc(OC)c(OC)cc1C=NNC(=O)Cc1c(C)[nH][nH]c1=O [MLS000555854] | > 59.6
